Values quoted from earlier work in publication PMC7904743, “WIDOCK: a reactive docking protocol for virtual screening of covalent inhibitors” (Journal of Computer-Aided Molecular Design, 2021).
Like-named read-outs stand apart in the source and are kept apart here.

Tests used:
[1] = test system: OTUB2; settings: experimental actives if % labeling higher than 50%; cited from earlier work
[2] = test system: NUDT7; settings: protein labeling at 200 μM; experimental actives if % labeling higher than 50%; cited from earlier work
[3] = thiol reactivity, cited from earlier work
[4] = natural log of average rate constant k
[5] = natural logarithm of average rate constant

| SMILES | OTUB2 % labeling [1] | NUDT7 % labeling [2] | ln(avg k) [3, 4] | ln(avg k) [3, 5] |
| --- | --- | --- | --- | --- |
| CNC(=O)c1cccc(NC(=O)CCl)c1 [PCM-0102113, CNC(=O)c1cccc(NC(=O)CCl)c1] | 0% | 0% | -15.492 | -15.492 |
| CC(=O)Nc1ccc(NC(=O)CCl)cc1 [PCM-0102114, CC(=O)Nc1ccc(NC(=O)CCl)cc1] | 0% | 0% | -16.157 | -16.157 |
| Cc1cccc(NC(=O)CCl)c1 [PCM-0102116, Cc1cccc(NC(=O)CCl)c1] | 11% | 0% | -15.855 | -15.855 |
| CC(NC(=O)CCl)c1cc2ccccc2o1 (stereo not shown) [PCM-0102117, CC(NC(=O)CCl)c1cc2ccccc2o1] | 41% | 12% | -16.443 | -16.443 |
| O=C(CCl)NC12CC3CC(CC(C3)C1)C2 [PCM-0102118, O=C(CCl)NC12CC3CC(CC(C3)C1)C2] | 0% | 0% | -16.476 | -16.476 |
| Cc1ccc(NC(=O)NC(=O)CCl)cc1C [PCM-0102119, Cc1ccc(NC(=O)NC(=O)CCl)cc1C] | 0% | 9% | -16.034 | -16.034 |
| O=C(CCl)Nc1ccc(Cl)cc1 [PCM-0102120, O=C(CCl)Nc1ccc(Cl)cc1] | 23% | 18% | -15.805 | -15.805 |
| O=C(CCl)N1CCN(S(=O)(=O)c2ccc(Cl)s2)CC1 [PCM-0102121, O=C(CCl)N1CCN(S(=O)(=O)c2ccc(Cl)s2)CC1] | 0% | 15% | -15.220 | -15.220 |
| O=C(CCl)NC(=O)NCc1ccccc1 [PCM-0102122, O=C(CCl)NC(=O)NCc1ccccc1] | 0% | 0% | -16.001 | -16.001 |
| O=C(CCl)N1CCc2sccc2C1 [PCM-0102123, O=C(CCl)N1CCc2sccc2C1] | 39% | 14% | -15.106 | -15.106 |
| O=C(CCl)N1CCN(c2ccc(Cl)cc2[N+](=O)[O-])CC1 [PCM-0102125, O=C(CCl)N1CCN(c2ccc(Cl)cc2[N+](=O)[O-])CC1] | 0% | 29% | -15.501 | -15.501 |
| O=C(CCl)Nc1nc2ccc(Br)cc2s1 [PCM-0102126, O=C(CCl)Nc1nc2ccc(Br)cc2s1] | 12% | 100% | -16.235 | -16.235 |
| O=C(CCl)Nc1ccc(Cl)cc1C(=O)O [PCM-0102127, O=C(CCl)Nc1ccc(Cl)cc1C(=O)O] | 10% | 0% | -16.749 | -16.749 |
| CC(NC(=O)CCl)c1ccccc1 (stereo not shown) [PCM-0102128, CC(NC(=O)CCl)c1ccccc1] | 42% | 13% | -16.398 | -16.398 |
| CC(=O)N1CCc2cc(NC(=O)CCl)ccc21 [PCM-0102129, CC(=O)N1CCc2cc(NC(=O)CCl)ccc21] | 31% | 7% | -15.858 | -15.858 |
| Cc1c(Cl)cccc1NC(=O)CCl [PCM-0102130, Cc1c(Cl)cccc1NC(=O)CCl] | 0% | 0% | -15.962 | -15.962 |
| Cc1ccc(-n2nc(C)c(NC(=O)CCl)c2C)cc1 [PCM-0102131, Cc1ccc(-n2nc(C)c(NC(=O)CCl)c2C)cc1] | 0% | 0% | -16.325 | -16.325 |
| O=C(CCl)N1CCN(CC(=O)N2CCOCC2)CC1 [PCM-0102133, O=C(CCl)N1CCN(CC(=O)N2CCOCC2)CC1] | 15% | 0% | -15.992 | -15.992 |
| Cc1cc([N+](=O)[O-])ccc1NC(=O)CCl [PCM-0102134, Cc1cc([N+](=O)[O-])ccc1NC(=O)CCl] | 11% | 10% | -16.240 | -16.240 |
| O=C(CCl)NC1CCS(=O)(=O)C1 (stereo not shown) [PCM-0102138, O=C(CCl)NC1CCS(=O)(=O)C1] | 0% | 0% | -15.936 | -15.936 |
| O=C1CN(C(=O)CCl)C2(CCCCC2)C(=O)N1 [PCM-0102139, O=C1CN(C(=O)CCl)C2(CCCCC2)C(=O)N1] | 5% | 22% | -15.673 | -15.673 |
| COc1ccc(NC(=O)CCl)cn1 [PCM-0102140, COc1ccc(NC(=O)CCl)cn1] | 0% | 0% | -13.166 | -13.166 |

| SMILES | OTUB2 % labeling [1] | NUDT7 % labeling [2] | ln(avg k) [3, 4] | ln(avg k) [3, 5] |
| --- | --- | --- | --- | --- |
| CS(=O)(=O)c1ccccc1NC(=O)CCl [PCM-0102141, CS(=O)(=O)c1ccccc1NC(=O)CCl] | 0% | 0% | -16.264 | -16.264 |
| O=C(CCl)NNC(=O)c1cc2c(s1)CCCC2 [PCM-0102142, O=C(CCl)NNC(=O)c1cc2c(s1)CCCC2] | 100% | 9% | -16.868 | -16.868 |
| Cc1c(C#N)c(NC(=O)CCl)n(-c2cccc(F)c2)c1C [PCM-0102146, Cc1c(C#N)c(NC(=O)CCl)n(-c2cccc(F)c2)c1C] | 10% | 58% | -15.589 | -15.589 |
| N#CCc1ccc(NC(=O)CCl)cc1 [PCM-0102148, N#CCc1ccc(NC(=O)CCl)cc1] | 43% | 10% | -15.302 | -15.302 |
| O=C(CCl)NCc1ccccc1F [PCM-0102149, O=C(CCl)NCc1ccccc1F] | 62% | 0% | -16.082 | -16.082 |
| O=C(CCl)N1CCC(c2ccccc2)=N1 [PCM-0102150, O=C(CCl)N1CCC(c2ccccc2)=N1] | 0% | 0% | -14.898 | -14.898 |
| O=C(CCl)Nc1ccccc1Cl [PCM-0102152, O=C(CCl)Nc1ccccc1Cl] | 20% | 0% | -16.303 | -16.303 |
| O=C(CCl)NC(=O)OCc1ccccc1 [PCM-0102153, O=C(CCl)NC(=O)OCc1ccccc1] | 79% | 0% | -16.245 | -16.245 |
| O=C(CCl)Nc1cccc(I)c1 [PCM-0102154, O=C(CCl)Nc1cccc(I)c1] | 49% | 24% | -15.790 | -15.790 |
| O=C(CCl)N(CC(F)(F)F)c1ccc(Cl)cc1 [PCM-0102155, O=C(CCl)N(CC(F)(F)F)c1ccc(Cl)cc1] | 0% | 79% | -15.883 | -15.883 |
| COc1ccc(NC(=O)CCl)cc1 [PCM-0102156, COc1ccc(NC(=O)CCl)cc1] | 52% | 0% | -15.521 | -15.521 |
| CC(NC(=O)CCl)C1CC1 (stereo not shown) [PCM-0102157, CC(NC(=O)CCl)C1CC1] | 10% | 0% | -17.112 | -17.112 |
| O=C(CCl)Nc1ccccc1F [PCM-0102158, O=C(CCl)Nc1ccccc1F] | 51% | 0% | -16.146 | -16.146 |
| O=C(CCl)N1c2ccccc2NC(=O)C12CCCC2 [PCM-0102159, O=C(CCl)N1c2ccccc2NC(=O)C12CCCC2] | 0% | 18% | -14.824 | -14.824 |
| O=C(CCl)N1CCc2ccccc21 [PCM-0102160, O=C(CCl)N1CCc2ccccc21] | 0% | 0% | -15.869 | -15.869 |
| NS(=O)(=O)c1cccc(NC(=O)CCl)c1 [PCM-0102162, NS(=O)(=O)c1cccc(NC(=O)CCl)c1] | 58% | 0% | -15.171 | -15.171 |
| O=C(CCl)Nc1ccc(O)cc1 [PCM-0102163, O=C(CCl)Nc1ccc(O)cc1] | 16% | 0% | -15.989 | -15.989 |
| NC(=O)c1c(NC(=O)CCl)sc2c1CCC2 [PCM-0102164, NC(=O)c1c(NC(=O)CCl)sc2c1CCC2] | 0% | 28% | -15.581 | -15.581 |
| Cc1cc(S(N)(=O)=O)cc(NC(=O)CCl)c1C [PCM-0102165, Cc1cc(S(N)(=O)=O)cc(NC(=O)CCl)c1C] | 12% | 9% | -16.164 | -16.164 |
| CCc1nnc(NC(=O)CCl)s1 [PCM-0102166, CCc1nnc(NC(=O)CCl)s1] | 0% | 21% | -16.086 | -16.086 |
| Cc1ccc(-c2csc(NC(=O)CCl)n2)cc1 [PCM-0102168, Cc1ccc(-c2csc(NC(=O)CCl)n2)cc1] | 0% | 40% | -15.760 | -15.760 |
